Laboratory results published in PubChem BioAssay (NCI).
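Here, GI50 denotes the concentration required for 50% inhibition of growth. Definition used: TGI = concentration required for complete inhibition of growth.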

Columns and labels:
Test in all cases: NCI tumour cell line growth inhibition, 384-well format
NCI-H522 lung = system: NCI-H522 lung
UACC-62 melanoma = system: UACC-62 melanoma
UACC-257 melanoma = system: UACC-257 melanoma
PC-3 prostate = system: PC-3 prostate
HCT-116 colon = system: HCT-116 colon
MALME-3M melanoma = system: MALME-3M melanoma
SF-539 CNS = system: SF-539 CNS
A549 NSCLC = system: A549 NSCLC
MDA-MB-468 breast = system: MDA-MB-468 breast
786-0 renal = system: 786-0 renal
COLO 205 colon = system: COLO 205 colon
SK-MEL-5 melanoma = system: SK-MEL-5 melanoma
MOLT-4 leukemia = system: MOLT-4 leukemia
TK-10 renal = system: TK-10 renal
SNB-75 CNS = system: SNB-75 CNS
BT-549 breast = system: BT-549 breast
NCI-H460 NSCLC = system: NCI-H460 NSCLC
HOP-92 NSCLC = system: HOP-92 NSCLC
UO-31 renal = system: UO-31 renal
IGROV1 ovarian = system: IGROV1 ovarian
EKVX NSCLC = system: EKVX NSCLC
SK-OV-3 ovarian = system: SK-OV-3 ovarian
MCF7 breast = system: MCF7 breast
SF-268 CNS = system: SF-268 CNS
CAKI-1 renal = system: CAKI-1 renal
OVCAR-4 ovarian = system: OVCAR-4 ovarian
SN12C renal = system: SN12C renal
HT29 colon = system: HT29 colon
HCC-2998 colon = system: HCC-2998 colon
SK-MEL-2 melanoma = system: SK-MEL-2 melanoma

`O=C(/C=C\n1cnc(-c2cc(C(F)(F)F)cc(C(F)(F)F)c2)n1)NNc1cnccn1` showed a GI50 (NCI-H522 lung) of 61.1 nM, a TGI (NCI-H522 lung) of 304 nM and a GI50 (UACC-62 melanoma) of 106 nM. For the same molecule, the TGI (UACC-62 melanoma) was 418 nM, the GI50 (UACC-257 melanoma) was 977 nM and the TGI (UACC-257 melanoma) was 8.46 µM. For the same molecule, the GI50 (PC-3 prostate) was 57.6 nM, the TGI (PC-3 prostate) was 999 nM and the GI50 (HCT-116 colon) was 60.8 nM. It also gave a TGI (HCT-116 colon) of 504 nM, a GI50 (MALME-3M melanoma) of 142 nM and a TGI (MALME-3M melanoma) of 1170 nM. The GI50 (SF-539 CNS) was 26.2 nM, the TGI (SF-539 CNS) was 86 nM and the GI50 (A549 NSCLC) was 109 nM. The TGI (A549 NSCLC) was 5.62 µM, the GI50 (MDA-MB-468 breast) was 90.3 nM and the TGI (MDA-MB-468 breast) was 249 nM. It also gave a GI50 (786-0 renal) of 59.8 nM, a TGI (786-0 renal) of 3.31 µM and a GI50 (COLO 205 colon) of 84.2 nM. For the same molecule, the TGI (COLO 205 colon) was 4.6 µM, the GI50 (SK-MEL-5 melanoma) was 143 nM and the TGI (SK-MEL-5 melanoma) was 675 nM. It also gave a GI50 (MOLT-4 leukemia) of 16.3 nM, a TGI (MOLT-4 leukemia) of 31.1 nM and a GI50 (TK-10 renal) of 126 nM. The TGI (TK-10 renal) was 13.2 µM, the GI50 (SNB-75 CNS) was 77 nM and the TGI (SNB-75 CNS) was 422 nM. It also gave a GI50 (BT-549 breast) of 19.9 nM, a TGI (BT-549 breast) of 62.1 nM and a GI50 (NCI-H460 NSCLC) of 48.3 nM. The TGI (NCI-H460 NSCLC) was 337 nM, the GI50 (HOP-92 NSCLC) was 194 nM and the TGI (HOP-92 NSCLC) was 4.36 µM. The GI50 (UO-31 renal) was 466 nM, the TGI (UO-31 renal) was 4.41 µM and the GI50 (IGROV1 ovarian) was 424 nM. The TGI (IGROV1 ovarian) was 7.51 µM, the GI50 (EKVX NSCLC) was 1340 nM and the TGI (EKVX NSCLC) was 13.1 µM. It also gave a GI50 (SK-OV-3 ovarian) of 919 nM, a TGI (SK-OV-3 ovarian) of 13.6 µM and a GI50 (MCF7 breast) of 58 nM. For the same molecule, the TGI (MCF7 breast) was 2150 nM, the GI50 (SF-268 CNS) was 40.7 nM and the TGI (SF-268 CNS) was 310 nM. The GI50 (CAKI-1 renal) was 99.7 nM, the TGI (CAKI-1 renal) was 13.1 µM and the GI50 (OVCAR-4 ovarian) was 316 nM. For the same molecule, the TGI (OVCAR-4 ovarian) was 1040 nM, the GI50 (SN12C renal) was 655 nM and the TGI (SN12C renal) was 5.87 µM. The GI50 (HT29 colon) was 213 nM, the TGI (HT29 colon) was 6.54 µM and the GI50 (HCC-2998 colon) was 46.3 nM. The TGI (HCC-2998 colon) was 530 nM, the GI50 (SK-MEL-2 melanoma) was 119 nM and the TGI (SK-MEL-2 melanoma) was 282 nM.
